Data on nine compounds can be found in US20150119373A1, “NOVEL BETULINIC ACID DERIVATIVES AS HIV INHIBITORS” (HETERO RESEARCH FOUNDATION, priority 2012, published 2015).

Where two headings read alike, the source gives them in different places.

A short description of data set [1]: Cyto-toxicity assay (MTT) in MT2 cells without virus. The format is cell-based. The conditions noted are these: human. On the procedure: For cyto-toxicity assay the same amount of MT2 cells as in antiviral assay without virus was added to the 96 well plates. The cyto-toxicity was measured using MTT reagent in parallel with p24 estimation. The percent viability is calculated in comparison with vehicle control.

Data set [2] is described as follows: Single dose oral pharmacokinetic study in mice. Type of data set: in vivo. Conditions: for AUC(0-inf) / Cmax / Tmax / AUC(0-t): mouse, plasma. The method in brief: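 Mice or rats dosed orally at 30 mg/kg in a suitable vehicle (10 ml/kg). Retro-orbital blood on K3 EDTA at defined time points under light ether anaesthesia; plasma analysed by LC-MS-MS.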
The subject of another data set is HIV-1 strain 92HT599. Put plainly: Antiviral activity: p24 estimation in MT2 cells infected with HIV-1 strain 92HT599. The format is cell-based. The conditions noted are these: Human immunodeficiency virus 1, MT2 cells, HIV-1 92HT599, ~96 hours, p24; for inhibition at 0.1 µM: 100 nM, read-out: Antiviral activity % inhibition 100 nM; for inhibition at 1 µM: 1000 nM, read-out: Antiviral activity % inhibition 1000 nM. The method in brief:
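Infection of MT2 cells used 10 TCID50/30000 cells, with compound present at ≤1% DMSO for ~96 h. p24 in well aliquots was quantified by kit. Percent inhibition is relative to vehicle controls.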

The mark [3] stands for this setting: Oral PK @ 30 mg/ kg dose in mice (Table 6).
Setting [4] is: Oral PK @ 30 mg/ kg dose in mice (Table 6), read-out: AUCt.
[5] abbreviates: Mice oral PK @30 mg/kg (Table 5).
Where [6] appears, read: Mice oral PK @30 mg/kg (Table 5), read-out: AUC 0-t.

Broadly, the viability is a per cent measure of how many cells are alive, often set against a control. One may read the AUC(0-inf) as total exposure, with the tail of the curve extrapolated. The low end stands for low exposure, the high end for high exposure. What is called Cmax is the highest concentration seen after dosing. The Tmax is the time from dosing to the highest level. One may read the inhibition as how much of the control response was suppressed. Turning to `CC1([C@@H]2CC[C@]3(C(=O)N4CCOCC4)CC[C@]4(C)[C@H](CC[C@@H]5[C@@]6(C)CC[C@H](OC(=O)[C@H]7C[C@@H](C(=O)O)C7(C)C)C(C)(C)[C@@H]6CC[C@]54C)[C@@H]23)CC1` [Example 28, (1R,3S)-2,2-dimethyl-3-((((1R,3aS,5aR,5bR,7aR,9S,11aR,11bR,13aR,13bR)-5a,5b,8,8,11a-pentamethyl-1-(1-methylcyclopropyl)-3a-(morpholine-4-carbonyl)icosahydro-1H-cyclopenta[a]chrysen-9-yl)oxy)carbonyl)cyclobutane-1-carboxylic acid], in data set [1], the viability at 100 nM turned out to be 81% and the viability at 1000 nM was 78%. In data set [2] (setting [3]), the Tlast turned out to be 48 h, the AUC(0-inf) worked out at 398 µg·h/mL, the Cmax came out at 4500 ng/mL and the Tmax is 16 h. The AUC(0-t) in data set [2] (setting [4]) was found to be 171 µg·h/mL. In addition, in the data set on HIV-1 strain 92HT599, the inhibition at 0.1 µM is 98% and the inhibition at 1 µM was 99%.

As to `CCN1CCN(C(=O)[C@]23CC[C@@H](C4(C)CC4)[C@@H]2[C@H]2CC[C@@H]4[C@@]5(C)CC[C@H](OC(=O)CC(C)(C)C(=O)O)C(C)(C)[C@@H]5CC[C@@]4(C)[C@]2(C)CC3)CC1` [Example 12, 4-((1R,3aS,5aR,5bR,7aR,9S,11aR,11bR,13aR,13bR)-3a-(4-ethylpiperazine-1-carbonyl)-5a,5b,8,8,11a-pentamethyl-1-(1-methylcyclopropyl)icosahydro-1H-cyclopenta[a]chrysen-9-yloxy)-2,2-dimethyl-4-oxobutanoicacid], in data set [1], the viability at 100 nM was found to be 100% and the viability at 1000 nM turned out to be 99%. In data set [2] (setting [5]), the Cmax came out at 8160 ng/mL and the Tmax was determined as 4 h. Further, the AUC(0-t) in data set [2] (setting [6]) was 201 µg·h/mL. Besides, in the data set with HIV-1 strain 92HT599, the inhibition at 0.1 µM was 100% and the inhibition at 1 µM is 100%.

`COCCOC1CCN(C(=O)[C@]23CC[C@@H](C4(C)CC4)[C@@H]2[C@H]2CC[C@@H]4[C@@]5(C)CC[C@H](OC(=O)CC(C)(C)C(=O)O)C(C)(C)[C@@H]5CC[C@@]4(C)[C@]2(C)CC3)CC1` [Example 41, 4-(((1R,3aS,5aR,5bR,7aR,9S,11aR,11bR,13aR,13bR)-3a-(4-(2-methoxyethoxyl)piperidine-1-carbonyl)-5a,5b,8,8,11a-pentamethyl-1-(1-methylcyclopropyl)icosahydro-1H-cyclopenta[a]chrysen-9-yl)oxy)-2,2-dimethyl-4-oxobutanoic acid]: in data set [1], the viability at 100 nM worked out at 86% and the viability at 1000 nM came to 86%. For the same compound, in data set [2] (setting [3]), the Tlast turned out to be 48 h, the AUC(0-inf) was found to be 240 µg·h/mL, the Cmax was determined as 9200 ng/mL and the Tmax was 6.5 h. The AUC(0-t) in data set [2] (setting [4]) worked out at 214 µg·h/mL. Besides, in the data set on HIV-1 strain 92HT599, the inhibition at 0.1 µM is 97% and the inhibition at 1 µM is 99%.

With `CC(C)(CC(=O)O[C@H]1CC[C@]2(C)[C@H]3CC[C@@H]4[C@H]5[C@H]([C@]6(C)CO6)CC[C@]5(C(=O)N[C@@H]5C[C@H](C(=O)N6CCCCC6)C5(C)C)CC[C@@]4(C)[C@]3(C)CC[C@H]2C1(C)C)C(=O)O` [Example 14, 4-((1R,3aS,5aR,5bR,7aR,9S,11aR,11bR,13aR,13bS)-3a-((1R,3S)-2,2-dimethyl-3-(piperidine-1-carbonyl)cyclobutylcarbamoyl)-5a,5b,8,8,11a-pentamethyl-1-(2-methyloxiran-2-yl)icosa hydro-1H-cyclopenta[a]chrysen-9-yloxy)-2,2-dimethyl-4-oxobutanoicacid], in data set [1], the viability at 100 nM was 86% and the viability at 1000 nM amounted to 88%. Further, in data set [2] (setting [5]), the peak level (Cmax) was 4450 ng/mL and the Tmax stood at 0.63 h. Also, the AUC(0-t) in data set [2] (setting [6]) worked out at 15.2 µg·h/mL. In addition, in the data set on HIV-1 strain 92HT599, the inhibition at 0.1 µM is 100% and the inhibition at 1 µM is 100%.

Regarding `CC1([C@@H]2CC[C@]3(C(=O)N[C@@H]4C[C@H](C(=O)N5CCCCC5)C4(C)C)CC[C@]4(C)[C@H](CC[C@@H]5[C@@]6(C)CC[C@H](OC(=O)[C@H]7C[C@@H](C(=O)O)C7(C)C)C(C)(C)[C@@H]6CC[C@]54C)[C@@H]23)CC1` [Example 23, (1R,3S)-3-((((1R,3aS,5aR,5bR,7aR,9S,11aR,11bR,13aR,13bR)-3a-(((1R,3S)-2,2-dimethyl-3-(piperidine-1-carbonyl)cyclobutyl)carbamoyl)-5a,5b,8,8,11a-pentamethyl-1-(1-methylcyclopropyl)icosahydro-1H-cyclopenta[a]chrysen-9-yl)oxy)carbonyl)-2,2-dimethylcyclobutane-1-carboxylic acid], in data set [1], the viability at 100 nM is 100% and the viability at 1000 nM amounted to 93%. Further, in data set [2] (setting [3]), the Tlast was 48 h, the AUC(0-inf) was 628 µg·h/mL, the Cmax turned out to be 11000 ng/mL and the Tmax is 4.5 h. Besides, the AUC(0-t) in data set [2] (setting [4]) stood at 324 µg·h/mL. In the data set on HIV-1 strain 92HT599, the inhibition at 0.1 µM is 100% and the inhibition at 1 µM is 100%.

In data set [1], `C=C(C)[C@@H]1CC[C@]2(C(=O)N[C@@H]3C[C@H](C(=O)N4CCCCC4)C3(C)C)CC[C@]3(C)[C@H](CC[C@@H]4[C@@]5(C)CC[C@H](OC(=O)[C@H]6[C@@H](CC(=O)O)C6(C)C)C(C)(C)[C@@H]5CC[C@]43C)[C@@H]12` [Example 18, 2-((1R,3S)-3-(((1R,3aS,5aR,5bR,7aR,9S,11aR,11bR,13aR,13bR)-3a-((1R,3S)-2,2-dimethyl-3-(piperidine-1-carbonyl)cyclobutylcarbamoyl)-5a,5b,8,8,11a-pentamethyl-1-(prop-1-en-2-yl)icosahydro-1H-cyclopenta[a]chrysen-9-yloxy)carbonyl)-2,2-dimethylcyclopropyl)acetic acid] gave a viability at 100 nM of 82% and a viability at 1000 nM of 77%. In data set [2] (setting [5]), the concentration peaked (Cmax) at 4230 ng/mL and the Tmax amounted to 2.25 h. Besides, in data set [2] (setting [6]), the AUC(0-t) amounted to 36.6 µg·h/mL. Also, in the data set with HIV-1 strain 92HT599, the inhibition at 0.1 µM is 100% and the inhibition at 1 µM is 100%.

For `[2H]C([2H])([2H])C(CC(=O)O[C@H]1CC[C@]2(C)[C@H]3CC[C@@H]4[C@H]5[C@H](C6(C)CC6)CC[C@]5(C(=O)N[C@@H]5C[C@H](C(=O)N6CCCCC6)C5(C)C)CC[C@@]4(C)[C@]3(C)CC[C@H]2C1(C)C)(C(=O)O)C([2H])([2H])[2H]` [Example 22, 4-(((1R,3aS,5aR,5bR,7aR,9S,11aR,11bR,13aR,13bR)-3a-(((1R,3S)-2,2-dimethyl-3-(piperidine-1-carbonyl)cyclobutyl)carbamoyl)-5a,5b,8,8,11a-pentamethyl-1-(1-methylcyclopropyl)icosahydro-1H-cyclopenta[a]chrysen-9-yl)oxy)-2,2-bis(methyl-d3)-4-oxobutanoic acid], in data set [1], the viability at 100 nM is 100% and the viability at 1000 nM came out at 87%. In addition, in data set [2] (setting [3]), the Tlast is 24 h, the AUC(0-inf) is 79 µg·h/mL, the Cmax came out at 10200 ng/mL and the time of peak concentration (Tmax) was found to be 1.8 h. The AUC(0-t) in data set [2] (setting [4]) was 63.9 µg·h/mL. Besides, in the data set with HIV-1 strain 92HT599, the inhibition at 0.1 µM was 100% and the inhibition at 1 µM is 100%.

In data set [1], `COCCOCCN1CCN(C(=O)[C@]23CC[C@@H](C4(C)CC4)[C@@H]2[C@H]2CC[C@@H]4[C@@]5(C)CC[C@H](OC(=O)[C@H]6C[C@@H](C(=O)O)C6(C)C)C(C)(C)[C@@H]5CC[C@@]4(C)[C@]2(C)CC3)CC1` [Example 40, (1R,3S)-3-((((1R,3aS,5aR,5bR,7aR,9S,11aR,11bR,13aR,13bR)-3a-(4-(2-(2-methoxyethoxy)ethyl)piperazine-1-carbonyl)-5a,5b,8,8,11a-pentamethyl-1-(1-methylcyclopropyl)icosahydro-1H-cyclopenta[a]chrysen-9-yl)oxy)carbonyl)-2,2-dimethylcyclobutane-1-carboxylic acid] returned a viability at 100 nM of 79% and a viability at 1000 nM of 81%. In data set [2] (setting [3]), the Tlast was determined as 48 h, the AUC(0-inf) came out at 119 µg·h/mL, the Cmax turned out to be 7000 ng/mL and the Tmax turned out to be 4 h. For the same compound, the AUC(0-t) in data set [2] (setting [4]) is 111 µg·h/mL. Besides, in the data set on HIV-1 strain 92HT599, the inhibition at 0.1 µM is 100% and the inhibition at 1 µM is 99%.

In data set [1], `[2H]C([2H])([2H])C(CC(=O)O[C@H]1CC[C@]2(C)[C@H]3CC[C@@H]4[C@H]5[C@H](C(=C)C)CC[C@]5(C(=O)N5CCN(CC)CC5)CC[C@@]4(C)[C@]3(C)CC[C@H]2C1(C)C)(C(=O)O)C([2H])([2H])[2H]` [Example 25, 4-(((1R,3aS,5aR,5bR,7aR,9S,11aR,11bR,13aR,13bR)-3a-(4-ethylpiperazine-1-carbonyl)-5a,5b,8,8,11a-pentamethyl-1-(prop-1-en-2-yl)icosahydro-1H-cyclopenta[a]chrysen-9-yl)oxy)-2,2-bis(methyl-d3)-4-oxobutanoic acid] yielded a viability at 100 nM of 100% and a viability at 1000 nM of 84%. Further, in data set [2] (setting [3]), the Tlast worked out at 48 h, the AUC(0-inf) turned out to be 122 µg·h/mL, the highest level (Cmax) was 6200 ng/mL and the Tmax was 4.5 h. The AUC(0-t) in data set [2] (setting [4]) was 108 µg·h/mL. Besides, in the data set with HIV-1 strain 92HT599, the inhibition at 0.1 µM was 100% and the inhibition at 1 µM was 100%.
